Values joined by “and” are separate entries in the source; they are usually repeats but may differ in a detail not shown here. Equal entries are not always repeated. “Also recorded” adds a separate entry of the source.
Tested on: horses demonstrating agitated behaviour
Assay: Feeding trial of calcium supplements in horses demonstrating agitated behaviour, marked by the feeder
Type: in vivo, horse
Conditions: for average mark for horses: mean of the feeders' marks (1 bad, 5 good); for feeder's general comment on the horse's behaviour during the trial / mark provided by the feeder, based on the effect noted in the behaviour of the horse: single horse; for mark provided by the feeder, based on the effect noted in the behaviour of the horse: mark between 1 and 5 (bad is 1, good is 5)
Excerpt: The horses were given doses of calcium chelate calculated to provide a loading dose of 12 grams of calcium per day for five days each week for a period of a month. In the calcium carbonate subject the feed dose was 24 or 48 grams of calcium per day. The feeder provided a mark between 1 and 5 where bad is 1 and good is 5. The mark allocated was based on the effect noted in the behaviour of the horse. The feeder also provided general comments on the horses' behaviour during the trial.

[1] = 60 grams of calcium carbonate only
[2] = 120 grams of calcium carbonate only
[3] = 12 grams of calcium per day, five days each week for a month
[4] = loading dose of 12 grams of calcium per day, five days each week for a month, supplement of the calcium chelate only

Compound	average mark for horses (feed dose 24 or 48 grams of calcium per day as calcium carbonate)	feeder's general comment on the horse's behaviour during the trial [1]	feeder's general comment on the horse's behaviour during the trial [2]	mark provided by the feeder, based on the effect noted in the behaviour of the horse [1]	mark provided by the feeder, based on the effect noted in the behaviour of the horse [2]	average mark for horses [3]	feeder's general comment on the horse's behaviour during the trial [3]	mark provided by the feeder, based on the effect noted in the behaviour of the horse [4]
O=C([O-])[O-].[Ca+2] [calcium carbonate, reference compound]	1.67	not much difference in the behaviour; also recorded: No significant change	small improvement in the horse's behaviour but not sufficient for the horse to be ridden	1.5 and 1	2.5	–	–	–
O=C([O-])CC(O)(CC(=O)[O-])C(=O)[O-].O=C([O-])CC(O)(CC(=O)[O-])C(=O)[O-].[Ca+2].[Ca+2].[Ca+2] [calcium citrate]	–	–	–	–	–	4.6	a lot calmer and rational; also recorded: much calmer and friendlier; also recorded: very good response; also recorded: much calmer generally	4.5 and 4 and 5
calcium gluconate	–	–	–	–	–	3.33	calmed down without losing any energy; also recorded: did not notice a difference in the horses' behaviour for the first couple of weeks; also recorded: within two weeks the horse was completely calm	4.5 and 2.5 and 3

From US20150201650A1, “DIETARY SUPPLEMENT” (Vetafarm Europe Ltd, priority 2009, published 2015)
